# In patent EP4772497A1, “POLYMORPHS OF NITROGEN-CONTAINING HETEROCYCLIC COMPOUNDS, AND USES THEREOF” (BNH Research Co., Ltd., priority 2023, dated 2025):
# Assays:
# [1] = Parallel artificial membrane permeability assay (PAMPA) for BBB permeability; format: in vitro ADME
# Experimental: • PAMPA: PMBBB-096 Kit • Assay format: 96-well plate • Reference substance: Imipramine (H) (10 µM) • Test substance concentration: 10 µM • Number of replicates: 3 • Reaction time: 6 hours at 25°C on a shaker (75 - 80 rpm) • Analytical method: LC-MS/MS • Data processing: Pe (cm/s)
# The test compounds (crystalline forms A and C) were dissolved in DMSO at a concentration of 10 mM […] to prepare standard solutions. Next, dried brain lipids were resuspended in 600 µL dodecane to prepare a BBB lipid solution in dodecane. Pipetting up and down was repeated (~100 times) until all dried brain lipids were dissolved (vortexing or sonication may be helpful). A 10 µM reaction solution in PBS containing 5% DMSO was prepared.
# The experiments were conducted in a 96-well plate using the prepared reaction solution of each test compound and the BBB lipid solution according to the following assay procedure. • 1. 500 µL of a 500 µM test compound solution (prepared by mixing 25 µL of a 10 mM test compound + 475 µL of PBS (pH 7.2) in DMSO) was prepared in a separate centrifuge tube. When a permeability control was used, it was diluted to 500 µM using PBS (prepared by mixing 25 µL of permeability control + 475 µL of PBS (pH 7.2)). • 2. For each test compound and control, a 200 µM equilibrium standard was prepared in a separate tube (by mixing 80 µL of 500 µM test compound or control with 120 µL of PBS (pH 7.2)). […] The absorbance spectrum from 200 nm to 500 nm was measured at 10 nm intervals to determine the peak absorbance of the test compounds. […] The peak absorbances of the high-permeability and low-permeability controls are 250 nm and 270 nm, respectively.
# For the compounds and permeability controls, the permeability rate (Pe) was determined using the following equation: Pe = C × −ln(1−(ODA)/(ODE))cm/s [formula]
# Here, ODA is the absorbance of the acceptor solution minus the blank, and ODE is the absorbance of the equilibrium standard minus the blank. For each absorbance value, the peak absorbance determined for each test was used. […]
# APP/PS1 mice [2] = assay: TC synaptic potency and GABA/AMPA ratio in the sensory cerebral cortex after dosing; format: in vivo; conditions: form C 1 mg/kg orally, aducanumab 5 mg/kg i.v.
# Experimental: (§1) Using APP/PS1 mice (15 months old, Taconic Biosciences), an animal model of Alzheimer's disease, the efficacy of crystalline form C and aducanumab (Creative Biolabs) was evaluated when administered alone or in combination, respectively. A control group and four experimental groups were prepared as follows (see Table 14).
# (§2) For the control antibody, an isotype antibody was administered intravenously, and for the vehicle, 200 µL of a mixed solution of DMSO (10):PEG400 (44):saline (55) was administered orally. Five mice were used for each treatment group.
# (§3) Aducanumab was administered at a dose of 5 mg/kg, and the control antibody, which is an inactivated form of aducanumab, was administered at a dose of 5 mg/kg. For the intravenous administration, a total of four injections were administered into the tail vein on the starting day of the experiment and at one-week intervals thereafter.
# (§4) For oral administration, 1 mg/kg of the compound of the present disclosure (crystalline form C, BnH-015B) or a vehicle was administered orally once daily for about 11 to 13 days, starting about 2 weeks after the initiation of the experiment.
# Meanwhile, the efficacy of the compound against Alzheimer's disease was evaluated by measuring the potency and the GABA/AMPA ratio in the sensory cerebral cortex. […]
# [3] = Competitive equilibrium experiments for crystalline forms A and C (XRPD, DSC); format: physicochemical; conditions: forms A and C slurried in acetone, acetonitrile, ethyl acetate, isopropyl acetate, acetone/water (35:65) at 5°C, 25°C, 50°C for 1 week
# Experimental: Competitive equilibrium experiments were performed in various solvent systems to determine the relative stability of crystalline forms A and C.
# About 15 mg of crystalline form A and 15 mg of crystalline form C were added to 0.2 mL of a saturated solution of each of selected solvents (acetone, acetonitrile, ethyl acetate, isopropyl acetate, and acetone/water (v:v=35:65)) (Table 9). The obtained suspensions were stirred at 5°C, 25°C, and 50°C, respectively, for 1 week. The solid portion (wet cake) was isolated by centrifugal filtration and analyzed by XRPD and DSC, and the results are shown in Figs. 7a to 7f.
# APP/PS1 mice [4] = assay: fEPSP slope and LTP in hippocampal CA1 (Schaffer collateral) after dosing, ex vivo synaptic plasticity; conditions: APP/PS1 mice 15 months old, form C 1 mg/kg orally once daily about 11 to 13 days, aducanumab 5 mg/kg i.v., four weekly injections
# Experimental: as §1, §2, §3, §4
# C57BL/6J mice = assay: TC synaptic potency and GABA/AMPA ratio in the barrel cortex after oral administration; format: in vivo; conditions: 8-week-old C57BL/6J mice, 1 mg/kg orally, barrel cortex (layer 4)
# Experimental: Following oral administration of crystalline form C, the efficacy of the compound was evaluated by measuring the potency and the GABA/AMPA ratio in the barrel cortex.
# Crystalline form C was orally administered at a dose of 1 mg/kg to 8-week-old C57BL/6J mice. For the control group, 200 µL of a mixed solution of DMSO (10):PEG400 (44):saline (55) was orally administered as a vehicle. Experiments were performed on five mice each for the control (vehicle) group and the compound-treated group.
structure (smiles),measurement,setting,value
"C[C@@H]1CC[C@H](C(=O)O)CN1C(=O)Cc1ccc(F)cc1Cl [Crystalline form C, (3S,6R)-1-(2-(2-chloro-4-fluorophenyl)acetyl)-6-methylpiperidine-3-carboxylic acid]",PAMPA Pe,"[1]; BBB lipid membrane, PBS (pH 7.2)",11.79 10^-9 cm/sec
same,"BBB permeability, comparison of forms",[1]; PAMPA,superior BBB permeability compared to crystalline form A
same,balance of excitation/inhibition (GABA/AMPA ratio),APP/PS1 mice [2],maintaining the balance of excitation/inhibition
same,excitatory TC synaptic potency (TC potency),APP/PS1 mice [2],increased excitatory TC synaptic potency
same,relative stability of crystalline forms A and C,[3],most thermodynamically stable crystalline form below 50 °C
same,"long-term potentiation (LTP) of the fEPSP, excitatory SC pathway",APP/PS1 mice [4]; hippocampus CA1,significantly increased
same,"slope of the field excitatory postsynaptic potential (fEPSP), synaptic efficacy","APP/PS1 mice [4]; hippocampus CA1, 4 weeks",significantly increased
same,TC synaptic potency,C57BL/6J mice,increase TC synaptic potency
same,balance of excitation/inhibition (GABA/AMPA ratio),C57BL/6J mice,maintaining the balance of excitation/inhibition
